These results are taken from the RepoRT retention time repository (doi:10.1007/s11306-014-0638-x).

The data set can be described thus: RP, Waters ACQUITY UPLC HSS T3, 150 × 2.1 mm, 1.8 µm, 40 °C, 0.28 mL/min, estimated dead time 1.2 min; A: water + 0.1% formic acid, pH 3; B: methanol + 0.1% formic acid, pH 3; gradient (min/%B) 0/0 1/0 3/10 18/40 21/100 25.5/100 25.6/0 28/0. As to conditions: stereoisomer not certain.
Regarding `O=C(O)c1ccc(O)c(O)c1` [3,4-dihydroxybenzoic acid], the LC retention time was 7.77 min.

On to `O=C(O)c1cc(O)cc(O)c1` [3,5-dihydroxybenzoic acid], for which the LC retention time is 7.75 min.

`O=C(O)c1ccc(O)cc1` [4-hydroxybenzoic acid]: the LC retention time is 10.6 min.

Consider `NC(CCC(=O)NC(CS)C(=O)NCC(=O)O)C(=O)O` [L-glutathione], for which the LC retention time is 1.7 min.

For `CC[C@H](C)[C@H](N)C(=O)O` [L-isoleucine], the LC retention time is 4.44 min.

Consider `O=C(O)[C@@H]1CCCN1` [L-proline], for which the LC retention time was 1.51 min.

On to `O=C(O)[C@H](O)[C@@H](O)C(=O)O` [L-tartaric acid], for which the LC retention time is 1.46 min.

Turning to `N[C@@H](Cc1ccc(O)cc1)C(=O)O` [L-tyrosine], the LC retention time is 4.28 min.

With `OCC1OC(Oc2cc(O)cc(C=Cc3ccc(O)c(O)c3)c2)C(O)C(O)C1O` (stereo not given) [astringin], the LC retention time was 14.2 min.

Turning to `O=C1CC(c2ccc(O)c(O)c2)c2c(cc(O)c3c2OC(c2ccc(O)c(O)c2)C(O)C3)O1` (stereo not given) [caffeic acid+catechin condensation product], the LC retention time was 17.8 min.

Turning to `O=C(C=Cc1ccc(O)c(O)c1)OC(C(=O)O)C(O)C(=O)O` (stereo not given) [caftaric acid], the LC retention time is 8.53 min.

Regarding `OCC1OC(Oc2cc(O)cc(C=Cc3ccc(O)cc3)c2)C(O)C(O)C1O` (stereo not drawn) [cis-piceid], the LC retention time was 18.4 min.

For `Oc1ccc(/C=C\c2cc(O)cc(O)c2)cc1` [cis-resveratrol], the LC retention time is 20.4 min.

Regarding `CC(O)(CC(=O)O)C(=O)O` (stereo not given) [citramalic acid], the LC retention time is 4.02 min.

`O=c1oc2c(O)c(O)cc3c(=O)oc4c(O)c(O)cc1c4c23` [ellagic acid]: the LC retention time was 20.3 min.

`Oc1ccc(C2Oc3cc(O)cc(O)c3CC2O)cc1` (stereo not given) [epiafzelechin]: the LC retention time was 15.6 min.

On to `O=C(OC1Cc2c(O)cc(O)cc2OC1c1ccc(O)c(O)c1)c1cc(O)c(O)c(O)c1` (stereo not given) [epicatechin gallate], for which the LC retention time is 16 min.

Consider `Oc1cc(O)c2c(c1)OC(c1ccc(O)c(O)c1)C(O)C2` (stereo not given) [epicatechin], for which the LC retention time was 12.1 min.

`O=C(OC1Cc2c(O)cc(O)cc2OC1c1cc(O)c(O)c(O)c1)c1cc(O)c(O)c(O)c1` (stereo not given) [epigallo-catechin gallate]: the LC retention time is 12.7 min.

Turning to `CCOC(=O)c1cc(O)c(O)c(O)c1` [ethyl gallate], the LC retention time was 15.2 min.

For `COc1cc(C=CC(=O)OC(C(=O)O)C(O)C(=O)O)ccc1O` (stereo not given) [fertaric acid], the LC retention time is 11.8 min.

With `COc1cc2ccc(=O)oc2c(OC2OC(CO)C(O)C(O)C2O)c1O` (stereo not given) [fraxin], the LC retention time is 12.6 min.

Turning to `Oc1cc(O)c2c(c1)OC(c1cc(O)c(O)c(O)c1)C(O)C2` (stereo not given) [gallocatechin], the LC retention time is 8.68 min.

With `COc1ccc(C2CC(=O)c3c(O)cc(O)cc3O2)cc1O` (stereo not given) [hesperetin], the LC retention time is 21.1 min.

For the compound `Oc1ccc(C2Oc3cc(O)cc4c3C2c2cc(O)cc(O)c2C(c2ccc(O)cc2)C4C2c3cc(O)cc4c3C(c3cc(O)cc(O)c3C2c2ccc(O)cc2)C(c2ccc(O)cc2)O4)cc1` (stereo not given) [isohopeaphenol], the LC retention time was 10.7 min.

For the compound `COc1cc(-c2oc3cc(O)cc(O)c3c(=O)c2OC2OC(CO)C(O)C(O)C2O)ccc1O` (stereo not given) [isorhamnetin 3-glucoside], the LC retention time is 20.5 min.

On to `COc1cc(-c2oc3cc(O)cc(O)c3c(=O)c2OC2OC(COC3OC(C)C(O)C(O)C3O)C(O)C(O)C2O)ccc1O` (stereo not given) [isorhamnetin 3-rutinoside], for which the LC retention time was 20.6 min.

Take `COc1cc(C=Cc2cc(O)cc(OC3OC(CO)C(O)C(O)C3O)c2)ccc1O` (stereo not given) [isorhapontin]: the LC retention time is 17.6 min.

As for `O=c1c(OC2OC(CO)C(O)C(O)C2O)c(-c2ccc(O)cc2)oc2cc(O)cc(O)c12` (stereo not given) [kaempferol 3-glucoside], the LC retention time is 20.3 min.

Regarding `CC1OC(OCC2OC(Oc3c(-c4ccc(O)cc4)oc4cc(O)cc(O)c4c3=O)C(O)C(O)C2O)C(O)C(O)C1O` (stereo not given) [kaempferol 3-rutinoside], the LC retention time was 20.5 min.

Consider `O=c1cc(-c2ccc(O)c(O)c2)oc2cc(OC3OC(CO)C(O)C(O)C3O)cc(O)c12` (stereo not given) [luteolin 7-glucoside], for which the LC retention time is 19.7 min.

With `COC(=O)c1cc(O)c(O)c(O)c1` [methyl gallate], the LC retention time was 10.7 min.

Turning to `COc1cc(-c2oc3cc(=O)cc4oc(C)cc(c2OC2OC(CO)C(O)C(O)C2O)c43)cc(OC)c1O` (stereo not given) [methylpyrano malvidin 3-glucoside], the LC retention time is 19.7 min.

Consider `O=C1CC(c2ccc(O)cc2)Oc2cc(OC3OC(CO)C(O)C(O)C3O)cc(O)c21` (stereo not given) [naringenin 7-glucoside], for which the LC retention time is 19.5 min.

Consider `O=C1CC(c2ccc(O)cc2)Oc2cc(O)cc(O)c21` (stereo not given) [naringenin], for which the LC retention time is 21 min.

As for `O=C(O)C=Cc1ccccc1O` [o-coumaric acid], the LC retention time was 19.7 min.

Regarding `COc1cc(-c2oc3cc(=O)cc4oc(O)cc(c2OC2OC(CO)C(O)C(O)C2O)c43)cc(OC)c1O` (stereo not given) [oxovitisin A], the LC retention time is 20.7 min.

In the case of `Oc1ccc(C2c3c(O)cc(O)cc3C3C(c4ccc(O)cc4)c4c(O)cc(O)cc4C23)cc1` (stereo not given) [pallidol], the LC retention time is 17.6 min.

Consider `CCOc1ccc(NC(C)=O)cc1` [phenacetin], for which the LC retention time is 19.4 min.

As to `O=C(CCc1ccc(O)cc1)c1c(O)cc(O)cc1O` [phloretin], the LC retention time was 21.1 min.

Regarding `O=C(CCc1ccc(O)cc1)c1c(O)cc(O)cc1OC1OC(CO)C(O)C(O)C1O` (stereo not given) [phloridzin], the LC retention time was 20.2 min.

Take `Oc1cc(O)c2c(c1)OC(c1ccc(O)c(O)c1)C(O)C2c1c(O)cc(O)c2c1OC(c1ccc(O)c(O)c1)C(O)C2` (stereo not given) [procyanidin B1]: the LC retention time was 9.66 min.

For the compound `CCC(=O)O` [proprionic acid], the LC retention time was 3.95 min.

Consider `COc1cc(C=Cc2ccc(O)cc2)cc(OC)c1` [pterostilbene], for which the LC retention time was 21.9 min.

For the compound `O=c1c(OC2OC(CO)C(O)C(O)C2O)c(-c2ccc(OC3OC(CO)C(O)C(O)C3O)c(O)c2)oc2cc(O)cc(O)c12` (stereo not given) [quercetin 3,4'-diglucoside], the LC retention time was 17.4 min.

Turning to `O=c1c(OC2OC(C(O)CO)C(O)C2O)c(-c2ccc(O)c(O)c2)oc2cc(O)cc(O)c12` (stereo not given) [quercetin 3-glucoside], the LC retention time was 20 min.

Regarding `O=C(O)C1OC(Oc2c(-c3ccc(O)c(O)c3)oc3cc(O)cc(O)c3c2=O)C(O)C(O)C1O` (stereo not given) [quercetin 3-glucuronide], the LC retention time is 19.9 min.

For the compound `CC1OC(OCC2OC(Oc3c(-c4ccc(O)c(O)c4)oc4cc(O)cc(O)c4c3=O)C(O)C(O)C2O)C(O)C(O)C1O` (stereo not given) [quercetin 3-rutinoside], the LC retention time was 20 min.

For `O=c1c(OS(=O)(=O)O)c(-c2ccc(O)c(O)c2)oc2cc(O)cc(O)c12` [quercetin 3-sulfate], the LC retention time is 20.1 min.

On to `O=c1c(O)c(-c2ccc(OC3OC(CO)C(O)C(O)C3O)c(O)c2)oc2cc(O)cc(O)c12` (stereo not given) [quercetin 4'-glucoside], for which the LC retention time is 20.4 min.

On to `O=C(O)C1(O)CC(O)C(O)C(O)C1` (stereo not given) [quinic acid], for which the LC retention time is 1.58 min.

With `O=C(O)CCC(=O)O` [succinic acid], the LC retention time is 3.94 min.

Turning to `COc1cc(C(=O)O)cc(OC)c1O` [syringic acid], the LC retention time is 13.8 min.

For the compound `O=C1c2c(O)cc(O)cc2OC(c2ccc(O)c(O)c2)C1O` (stereo not given) [taxifolin], the LC retention time was 16.8 min.

Take `O=C(C=Cc1ccc(O)cc1)OC(C(=O)O)C(O)C(=O)O` (stereo not drawn) [trans coutaric acid]: the LC retention time was 10.7 min.

For `O=c1cc[nH]c(=O)[nH]1` [uracil], the LC retention time is 2.34 min.

As to `O=c1[nH]c(=O)c2[nH]c(=O)[nH]c2[nH]1` [uric acid], the LC retention time was 3.44 min.

Take `COc1cc(-c2oc3cc(=O)cc4oc(O)c(C=[OH+])c(c2OC2OC(CO)C(O)C(O)C2O)c43)cc(OC)c1O` (stereo not given) [vitisin A]: the LC retention time was 19.3 min.

For `Oc1ccc(C2Oc3ccc(C=Cc4cc(O)cc5c4C(c4cc(O)cc(O)c4)C(c4ccc(O)cc4)O5)cc3C2c2cc(O)cc3c2C(c2cc(O)cc(O)c2)C(c2ccc(O)cc2)O3)cc1` (stereo not given) [vitisin B], the LC retention time is 18.3 min.

Turning to `O=c1[nH]c(=O)c2[nH]cnc2[nH]1` [xanthine], the LC retention time is 3.97 min.
